In US20100249302A1, “LIQUID COMPOSITION CONTAINING PERFLUORO-CHLOROETHER SOLVENT” (FUJIFILM CORPORATION, priority 2009, published 2010):

Columns and labels:
[1] = Solubility of coating-composition components in FC-72 (comparative coating examples); details: label = solute, solvent = FC-72; coating composition preparation
[2] = Solubility of FC-72 (perfluorohexane) in the fluorine-containing solvents; type: physicochemical; details: for Solubility (% by weight) FC-72 (Fluorine Content: 79% by weight): Table 1, solute FC-72 dissolved in the solvent; for ability of the solvent to dissolve FC-72: label = solvent, solute = FC-72
[3] = Measurement of solubility of compound (17) (fluorine-free organic compound) in fluorine-containing solvents; details: Table 1; solute compound (17) dissolved in the solvent
Procedure: The resulting solution is diluted with deutrochloroform, followed by measuring ^1H-NMR.

SMILES	solubility in FC-72 [1]	Solubility (% by weight) FC-72 (Fluorine Content: 79% by weight) [2]	ability of the solvent to dissolve FC-72 [2]	Solubility (% by weight) Compound (17) (Fluorine Content: 0% by weight) [3]	Solubility (% by weight) FC-72 [2]
OCC(F)(F)C(F)(F)C(F)(F)C(F)(F)C(F)(F)C(F)(F)C(F)(F)C(F)(F)CO [1H,1H,10H,10H-hexadecafluoro-1,10-decanediol]	not completely soluble	–	–	–	–
CCO[Si](CCCN=C=O)(OCC)OCC [3-(triethoxysilyl)propyl isocyanate]	not completely soluble	–	–	–	–
FC(F)(Cl)C(F)(F)OC(F)(Cl)C(Cl)(Cl)Cl (stereo not shown) [Compound (2)]	–	soluble in any	can dissolve FC-72 in any proportion	soluble in any	–
FC(F)(Cl)C(F)(F)OC(F)(Cl)C(F)(Cl)Cl (stereo not shown) [Compound (2′)]	–	–	can dissolve FC-72 in any proportion	–	soluble in any
FC(F)(Cl)C(F)(OC(F)(Cl)C(Cl)(Cl)Cl)C(F)(F)Cl (stereo not shown) [Compound (3)]	–	soluble in any	can dissolve FC-72 in any proportion	soluble in any	–
FC(Cl)(Cl)C(F)(F)OC(F)(Cl)C(F)(Cl)Cl (stereo not shown) [Compound (3′)]	–	–	can dissolve FC-72 in any proportion	–	soluble in any
FC(Cl)(Cl)C(F)(F)OC(F)(Cl)C(Cl)(Cl)Cl (stereo not shown) [Compound (4)]	–	soluble in any	can dissolve FC-72 in any proportion	soluble in any	–
FC(Cl)(Cl)C(F)(Cl)OC(F)(F)C(Cl)(Cl)Cl (stereo not shown) [Compound (4′)]	–	–	can dissolve FC-72 in any proportion	–	soluble in any
FC(F)(OC(F)(Cl)C(Cl)(Cl)Cl)C(Cl)(Cl)Cl (stereo not shown) [Compound (5)]	–	soluble in any	can dissolve FC-72 in any proportion	soluble in any	–
FC(F)(Cl)C(F)(OC(F)(Cl)C(F)(Cl)Cl)C(F)(F)Cl (stereo not shown) [Compound (5′)]	–	–	can dissolve FC-72 in any proportion	–	soluble in any
